“And” between values parts separate entries of the source, which are not always exact repeats. Equal entries are not always repeated.
Key:
rabbit eye = experiment: Clinical evaluation by slit lamp (clinical score), rabbit paracentesis model; assay type: in vivo; design: key to Clinical Score −180 min / Clinical Score −5 min / Clinical Score +115 min: 0: normal; 1: discrete dilatation of iris and conjunctival vessels; 2: moderate dilatation of iris and conjunctival vessels; 3: intense iridal hyperemia with flare in the anterior chamber; 4: intense iridal hyperemia with flare in the anterior chamber and presence of fibrinous exudates; details: for Clinical Score −5 min: 5 min before the first paracentesis; for Clinical Score −5 min / Clinical Score +115 min / Clinical Score −180 min: individual eyes; for Clinical Score +115 min: 5 min before the second paracentesis; for Clinical Score −180 min: basal
[1] = tested on: intraocular pressure (IOP) in New Zealand White rabbits; experiment: Intraocular pressure in New Zealand White rabbits, topical dosing four times daily; assay type: in vivo; details: for Intraocular Pressure, MEAN: A.M. readings
Procedure: On Days 1-31, animals received daily topical doses of the appropriate test article into the right eye. Animals were dosed four times per day, with doses administered 2 hours apart. Doses were administered using a calibrated 50-μL pipette. The eyelids were held close for 10 seconds immediately following dosing. The time of each dose administration was recorded.
Intraocular pressure (“IOP”) was determined for both eyes of each animal on Days 3, 5, 10, 12, 16, 18, 22, 24, 26, 30, and 32. LOP was evaluated with a Medtronic Solan, Model 30 classic pneumatonometer. Proparacaine hydrochloride 0.5% (1 drop) was delivered to each eye prior to IOP measurement. IOP was measured on Monday, Wednesday, and Friday of each week. A two-point diurnal curve was established: IOP was recorded at 8 a.m. and 12 p.m. on Day 3, and at 8 a.m. and 2 p.m. on later days, with a ±1 hour range for each of these times. The time of the measurements was recorded.
Descriptive statistics were prepared for IOP data of each treatment group (left and right eyes separately) at each measurement interval. The statistics included the number of observations (“N”), mean, standard deviation (“STD”), and standard error (“SEM”). Statistical analyses were conducted on IOP results using Statistical Analysis Systems (SAS Institute, Inc., Cary, N.C., V8.0). Parameters were evaluated using analysis of variance/GLM Procedure followed by Tukey's Standardized Range Test (Tukey, 1985) for post hoc comparisons of group means. The level of significance was set at a probability of p<0.05 for all statistical procedures. Group IOP means were compared at each interval, with left and right eyes compared separately.
IOP data for the following six animals were excluded from group statistics: Group A, Nos. 3081, 3037, 3068, and 3011; Group C, No. 3034; and Group E, No. 3084.

[2] = 0.1% topical formulation, +115 min, 8 eyes
[3] = 0.5% topical formulation, +115 min, 8 eyes

Cc1ccc2c(NCC(O)(CC(C)(C)c3cc(F)cc4c3OCC4)C(F)(F)F)cccc2n1 (centres unmarked) [BOL-303242-X]
Clinical Score −5 min (rabbit eye; 0.1% topical formulation): 0
Clinical Score +115 min (rabbit eye; 0.1% topical formulation, listed as BOL): 2 (6×) and 3 (2×)
Clinical score as percentage of eyes, Score (%) 2 (rabbit eye; [2]): 75%
Clinical score as percentage of eyes, Score (%) 3 (rabbit eye; [2]): 25%
Clinical Score −180 min (rabbit eye; 0.1% topical formulation): 0
Clinical score as percentage of eyes, Score (%) 0 (rabbit eye; 0.1% topical formulation, −5 min, 8 eyes): 100%
Clinical score as percentage of eyes, Score (%) 0 (rabbit eye; 0.1% topical formulation, −180 min (basal), 8 eyes): 100%
Clinical Score −5 min (rabbit eye; 0.5% topical formulation): 0
Clinical Score +115 min (rabbit eye; 0.5% topical formulation, listed as BOL): 2 (5×) and 1 (3×)
Clinical score as percentage of eyes, Score (%) 1 (rabbit eye; [3]): 37.5%
Clinical score as percentage of eyes, Score (%) 2 (rabbit eye; [3]): 62.5%
Clinical Score −180 min (rabbit eye; 0.5% topical formulation): 0
Clinical score as percentage of eyes, Score (%) 0 (rabbit eye; 0.5% topical formulation, −5 min, 8 eyes): 100%
Clinical score as percentage of eyes, Score (%) 0 (rabbit eye; 0.5% topical formulation, −180 min (basal), 8 eyes): 100%
Clinical Score −5 min (rabbit eye; 1% topical formulation): 0
Clinical Score +115 min (rabbit eye; 1% topical formulation): 2
Clinical score as percentage of eyes, Score (%) 2 (rabbit eye; 1% topical formulation, +115 min, 8 eyes): 100%
Clinical Score −180 min (rabbit eye; 1% topical formulation): 0
Clinical score as percentage of eyes, Score (%) 0 (rabbit eye; 1% topical formulation, −5 min, 8 eyes): 100%
Clinical score as percentage of eyes, Score (%) 0 (rabbit eye; 1% topical formulation, −180 min (basal), 8 eyes): 100%
Intraocular Pressure, MEAN ([1]; 1 mg/g BOL-303242-X (Group D), untreated left eyes, Day 3): 23.5 mmHg
Intraocular Pressure, MEAN ([1]; 1 mg/g BOL-303242-X (Group D), untreated left eyes, Day 5): 24.4 mmHg
Intraocular Pressure, MEAN ([1]; 1 mg/g BOL-303242-X (Group D), untreated left eyes, Day 10): 24.5 mmHg
Intraocular Pressure, MEAN ([1]; 1 mg/g BOL-303242-X (Group D), untreated left eyes, Day 12): 22.2 mmHg
Intraocular Pressure, MEAN ([1]; 1 mg/g BOL-303242-X (Group D), untreated left eyes, Day 16): 21.6 mmHg
Intraocular Pressure, MEAN ([1]; 1 mg/g BOL-303242-X (Group D), untreated left eyes, Day 18): 23.3 mmHg
Intraocular Pressure, MEAN ([1]; 1 mg/g BOL-303242-X (Group D), untreated left eyes, Day 22): 22.4 mmHg
Intraocular Pressure, MEAN ([1]; 1 mg/g BOL-303242-X (Group D), untreated left eyes, Day 24): 22.4 mmHg
Intraocular Pressure, MEAN ([1]; 1 mg/g BOL-303242-X (Group D), untreated left eyes, Day 26): 22.9 mmHg
Intraocular Pressure, MEAN ([1]; 1 mg/g BOL-303242-X (Group D), untreated left eyes, Day 30): 23.4 mmHg
Intraocular Pressure, MEAN ([1]; 1 mg/g BOL-303242-X (Group D), untreated left eyes, Day 32): 24.1 mmHg
Intraocular Pressure, MEAN ([1]; 1 mg/g BOL-303242-X (Group D), untreated left eyes, Pre-Study): 23.9 mmHg
Intraocular Pressure, MEAN ([1]; 5 mg/g BOL-303242-X (Group C), untreated left eyes, Day 3): 23.8 mmHg
Intraocular Pressure, MEAN ([1]; 5 mg/g BOL-303242-X (Group C), untreated left eyes, Day 5): 24.4 mmHg
Intraocular Pressure, MEAN ([1]; 5 mg/g BOL-303242-X (Group C), untreated left eyes, Day 10): 24.6 mmHg
Intraocular Pressure, MEAN ([1]; 5 mg/g BOL-303242-X (Group C), untreated left eyes, Day 12): 23.8 mmHg
Intraocular Pressure, MEAN ([1]; 5 mg/g BOL-303242-X (Group C), untreated left eyes, Day 16): 23.4 mmHg
Intraocular Pressure, MEAN ([1]; 5 mg/g BOL-303242-X (Group C), untreated left eyes, Day 18): 21.9 mmHg
Intraocular Pressure, MEAN ([1]; 5 mg/g BOL-303242-X (Group C), untreated left eyes, Day 22): 21.6 mmHg
Intraocular Pressure, MEAN ([1]; 5 mg/g BOL-303242-X (Group C), untreated left eyes, Day 24): 22.1 mmHg
Intraocular Pressure, MEAN ([1]; 5 mg/g BOL-303242-X (Group C), untreated left eyes, Day 26): 21.7 mmHg
Intraocular Pressure, MEAN ([1]; 5 mg/g BOL-303242-X (Group C), untreated left eyes, Day 30): 22.6 mmHg
Intraocular Pressure, MEAN ([1]; 5 mg/g BOL-303242-X (Group C), untreated left eyes, Day 32): 23.1 mmHg
Intraocular Pressure, MEAN ([1]; 5 mg/g BOL-303242-X (Group C), untreated left eyes, Pre-Study): 24.2 mmHg
Intraocular Pressure, MEAN ([1]; 10 mg/g BOL-303242-X (Group B), untreated left eyes, Day 3): 23.3 mmHg
Intraocular Pressure, MEAN ([1]; 10 mg/g BOL-303242-X (Group B), untreated left eyes, Day 5): 23.4 mmHg
Intraocular Pressure, MEAN ([1]; 10 mg/g BOL-303242-X (Group B), untreated left eyes, Day 10): 24.0 mmHg
Intraocular Pressure, MEAN ([1]; 10 mg/g BOL-303242-X (Group B), untreated left eyes, Day 12): 23.8 mmHg
Intraocular Pressure, MEAN ([1]; 10 mg/g BOL-303242-X (Group B), untreated left eyes, Day 16): 22.9 mmHg
Intraocular Pressure, MEAN ([1]; 10 mg/g BOL-303242-X (Group B), untreated left eyes, Day 18): 21.2 mmHg
Intraocular Pressure, MEAN ([1]; 10 mg/g BOL-303242-X (Group B), untreated left eyes, Day 22): 21.8 mmHg
Intraocular Pressure, MEAN ([1]; 10 mg/g BOL-303242-X (Group B), untreated left eyes, Day 24): 20.2 mmHg
Intraocular Pressure, MEAN ([1]; 10 mg/g BOL-303242-X (Group B), untreated left eyes, Day 26): 21.7 mmHg
Intraocular Pressure, MEAN ([1]; 10 mg/g BOL-303242-X (Group B), untreated left eyes, Day 30): 22.7 mmHg
Intraocular Pressure, MEAN ([1]; 10 mg/g BOL-303242-X (Group B), untreated left eyes, Day 32): 22.9 mmHg
Intraocular Pressure, MEAN ([1]; 10 mg/g BOL-303242-X (Group B), untreated left eyes, Pre-Study): 23.8 mmHg
Differences in mean IOP versus the BSS group ([1]; BOL-303242-X 1, 5, 10 mg/g suspensions): No statistically significant (p<0.05) differences
IOP compared to daily dosing with dexamethasone ([1]; BOL-303242-X suspensions 0.05, 0.25 or 0.5 mg/dose, daily dosing up to 31 days): did not increase IOP
Mean IOP after treatment began ([1]; rabbits, right eye four times daily up to 31 days, dexamethasone 0.1%, BOL-303242-X 1, 5, 10 mg/g, left and right eyes): This increase was not seen
Intraocular Pressure, MEAN ([1]; treated right eyes, Day 3, 1 mg/g (Group D)): 23.0 mmHg
Intraocular Pressure, MEAN ([1]; treated right eyes, Day 3, 5 mg/g (Group C)): 23.7 mmHg
Intraocular Pressure, MEAN ([1]; treated right eyes, Day 3, 10 mg/g (Group B)): 22.7 mmHg
